Among the data in ChEMBL document CHEMBL1131934, “The design of non-peptide human bradykinin B2 receptor antagonists employing the benzodiazepine peptidomimetic scaffold” (Bioorg Med Chem Lett, 1999) are Ki and inhibition values, retold here.

For one assay, the target named is T1, B2 bradykinin receptor (Homo sapiens, UniProt P30411).
T1 sequence (P30411 whole entry): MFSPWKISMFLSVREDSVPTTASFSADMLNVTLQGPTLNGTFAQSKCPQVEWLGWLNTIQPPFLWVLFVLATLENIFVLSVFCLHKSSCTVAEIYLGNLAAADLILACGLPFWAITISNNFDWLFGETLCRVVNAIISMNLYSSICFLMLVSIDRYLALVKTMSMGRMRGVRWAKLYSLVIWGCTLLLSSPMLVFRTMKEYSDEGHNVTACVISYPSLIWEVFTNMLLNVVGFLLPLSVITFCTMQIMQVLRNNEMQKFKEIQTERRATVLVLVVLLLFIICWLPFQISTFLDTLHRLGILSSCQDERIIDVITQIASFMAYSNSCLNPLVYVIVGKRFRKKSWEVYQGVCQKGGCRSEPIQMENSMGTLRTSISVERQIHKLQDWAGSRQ
Kind of assay: Binding affinity towards human bradykinin B2 receptor (membranes from Cos-7 cells expressing human B2 receptor) using [3H]-BK as radioligand. Format: cell membranes.

Assay [1] concerns the target T2, B2 bradykinin receptor (Homo sapiens) (UniProt P30411).
T2 sequence (whole entry): T1 sequence (P30411 whole entry)
Kind of assay: Binding affinity towards human bradykinin B2 receptor (membranes from Cos-7 cells expressing human B2 receptor) using [3H]BK as radioligand. Particulars: concentration not given here. Type of assay: cell membranes.

For the molecule `O=C(O)CN1C(=O)C(Cc2ccccc2)N=C(c2ccccc2)c2ccccc21` (centres undefined), the Ki at B2 bradykinin receptor was greater than 100 µM.
`NC(N)=Nc1cccc(CN2C(=O)C(Cc3ccccc3)N=C(c3ccccc3)c3ccccc32)c1` (centres undefined) displayed a Ki on B2 bradykinin receptor of 8.9 µM.
Same read-out and setting: the figure for `Nc1cccc(CN2C(=O)C(Cc3ccccc3)N=C(c3ccccc3)c3ccccc32)c1` (centres undefined) is greater than 100 µM; for `N=C(N)Nc1cccc(CN2C(=O)[C@@H](Cc3ccccc3)N=C(c3ccccc3)c3ccccc32)c1` it is 11.9 µM; for `O=C1Nc2ccccc2C(c2ccccc2)=NC1Cc1ccccc1` (centres undefined) it is greater than 100 µM.
On the same count and under the same terms, the figure for `N=C(N)Nc1ccc(N2C(=O)C(Cc3ccccc3)N=C(c3ccccc3)c3ccccc32)cc1` (centres undefined) is 9.2 µM.
Same read-out and setting: the figure for `NC(N)=Nc1cccc(CN2C(=O)[C@H](Cc3ccccc3)N=C(c3ccccc3)c3ccccc32)c1` is 15.8 µM.
Molecule `N=C(N)NCCCCN1C(=O)C(Cc2ccccc2)N=C(c2ccccc2)c2ccccc21` (centres undefined) yielded an inhibition constant (Ki) at B2 bradykinin receptor of 21.3 µM.
Molecule `NCCCCN1C(=O)C(Cc2ccccc2)N=C(c2ccccc2)c2ccccc21` (centres undefined) had an inhibition in assay [1] of 26%.
